Assay results published in article PMC4765732 (Journal of medicinal chemistry, 2015).

Tests used:
[1] = test system: HIV-1LAI; assay: Antiviral assay in MT-2 human T-lymphocytes exposed to HIV-1LAI; format: cell-based
[2] = test system: HIV-1DRV^RP51; format: cell-based; conditions: against HIV-1DRV^RP51

Row | SMILES | loss in antiviral activity ([1]; versus Boc-derivative 25c) [fold] | improvement in EC50 values over darunavir [2] [fold] | improvement in antiviral activity over the methyl and ethyl derivatives ([1]; antiviral IC50 versus 25f and 25i)
1 | COc1ccc(S(=O)(=O)N(CC(C)C)C[C@@H](O)[C@H](Cc2ccccc2)NC(=O)O[C@H]2CO[C@H]3OC[C@H](N(C)C(=O)OC(C)(C)C)[C@H]32)cc1 [Inhibitor 25e, (3R,3aS,4R,6aR)-4-((2S,3R)-3-Hydroxy-4-(N-isobutyl-4-methoxyphenylsulfonamido)-1-phenylbutan-2-ylcarbamoyloxy)hexahydrofuro[2,3-b]furan-3-yl methyl t-butyl carbamate] | ~10 | – | –
2 | CCN[C@H]1CO[C@@H]2OC[C@H](OC(=O)N[C@@H](Cc3ccccc3)[C@H](O)CN(CC(C)C)S(=O)(=O)c3ccc(OC)cc3)[C@@H]21 [Inhibitor 25i] | – | 10 | –
3 | COc1ccc(S(=O)(=O)N(CC(C)C)C[C@@H](O)[C@H](Cc2ccccc2)NC(=O)O[C@H]2CO[C@H]3OC[C@H](NC(C)C)[C@H]32)cc1 [Inhibitor 25j, (3R,3aS,4R,6aR)-4-(Isopropylamino)hexahydrofuro[2,3-b]furan-3-yl ((2S,3R)-3-hydroxy-4-((N-isobutyl-4-methoxyphenyl)sulfonamido)-1-phenylbutan-2-yl)carbamate] | – | 10 | over 60 fold
